Data: PubChem BioAssay AID1963970 (Molecular Pharmacology Branch, DTP, NCI, 2024)

Tested on: 931267-113-T-J1-PDC multicell spheroid viability
Assay: Anticancer human tumor 931267-113-T-J1-PDC patient-derived colon adenocarcinoma cell line growth inhibition [PI3K]
Conditions: for IC50: curve of first compound; for viability, T/C: stronger effect = lower value
Outline: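 Tumor cells grown as multi-cell spheroids with HUVEC endothelial cells and MSC fibroblast-like stroma were treated with targeted agents combined with inavolisib, alpelisib, duvelisib or copanlisib. Doses fell in half-log steps from near clinical Cmax, else from 10 microM. Viability was measured.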

[1] = second compound 0.00316 µM, first compound 0.0316 µM
[2] = second compound 0.00316 µM, first compound 0.1 µM
[3] = second compound 0.00316 µM, first compound 0.316 µM
[4] = second compound 0.00316 µM, first compound 1 µM
[5] = second compound 0.00316 µM, first compound 3.16 µM
[6] = second compound 0.00316 µM, first compound 10 µM
[7] = second compound 0.01 µM, first compound 0.0316 µM
[8] = second compound 0.01 µM, first compound 0.1 µM
[9] = second compound 0.01 µM, first compound 0.316 µM
[10] = second compound 0.01 µM, first compound 1 µM
[11] = second compound 0.01 µM, first compound 3.16 µM
[12] = second compound 0.01 µM, first compound 10 µM
[13] = second compound 0.0316 µM, first compound 0.0316 µM
[14] = second compound 0.0316 µM, first compound 0.1 µM
[15] = second compound 0.0316 µM, first compound 0.316 µM
[16] = second compound 0.0316 µM, first compound 1 µM
[17] = second compound 0.0316 µM, first compound 3.16 µM
[18] = second compound 0.0316 µM, first compound 10 µM
[19] = second compound 0.1 µM, first compound 0.0316 µM
[20] = second compound 0.1 µM, first compound 0.1 µM
[21] = second compound 0.1 µM, first compound 0.316 µM
[22] = second compound 0.1 µM, first compound 1 µM
[23] = second compound 0.1 µM, first compound 3.16 µM
[24] = second compound 0.1 µM, first compound 10 µM
[25] = second compound 0.316 µM, first compound 0.0316 µM
[26] = second compound 0.316 µM, first compound 0.1 µM
[27] = second compound 0.316 µM, first compound 0.316 µM
[28] = second compound 0.316 µM, first compound 1 µM
[29] = second compound 0.316 µM, first compound 3.16 µM
[30] = second compound 0.316 µM, first compound 10 µM
[31] = second compound 1 µM, first compound 0.0316 µM
[32] = second compound 1 µM, first compound 0.1 µM
[33] = second compound 1 µM, first compound 0.316 µM
[34] = second compound 1 µM, first compound 1 µM
[35] = second compound 1 µM, first compound 3.16 µM
[36] = second compound 1 µM, first compound 10 µM
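Also: viability read 7 days after compound addition.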

C#Cc1c(F)ccc2cc(O)cc(-c3ncc4c(N5CC6CCC(C5)N6)nc(OCC56CCCN5CC(F)C6)nc4c3F)c12 (stereo unspecified) + COc1c(OCCCN2CCOCC2)ccc2c3n(c(=NC(=O)c4cnc(N)nc4)nc12)CCN3
IC50 (second compound 0.00316 µM): 384 nM | IC50 (second compound 0.01 µM): 238 nM | IC50 (second compound 0.0316 µM): 93.2 nM | IC50 (second compound 0.1 µM): 37.8 nM | IC50 (second compound 0.316 µM): < 31.6 nM | IC50 (second compound 1 µM): < 31.6 nM | viability, T/C [1]: 78.6% | viability, T/C [2]: 67.9% | viability, T/C [3]: 51.9% | viability, T/C [4]: 38% | viability, T/C [5]: 24.8% | viability, T/C [6]: 17.2% | viability, T/C [7]: 84.7% | viability, T/C [8]: 70.5% | viability, T/C [9]: 39.2% | viability, T/C [10]: 32.4% | viability, T/C [11]: 21.2% | viability, T/C [12]: 15.9% | viability, T/C [13]: 62.3% | viability, T/C [14]: 52.1% | viability, T/C [15]: 30.2% | viability, T/C [16]: 23.8% | viability, T/C [17]: 21.4% | viability, T/C [18]: 11% | viability, T/C [19]: 54% | viability, T/C [20]: 34.4% | viability, T/C [21]: 25.5% | viability, T/C [22]: 19% | viability, T/C [23]: 13.3% | viability, T/C [24]: 6.82% | viability, T/C [25]: 36.4% | viability, T/C [26]: 26.7% | viability, T/C [27]: 17.1% | viability, T/C [28]: 10.5% | viability, T/C [29]: 7.67% | viability, T/C [30]: 4.44% | viability, T/C [31]: 24.3% | viability, T/C [32]: 20.9% | viability, T/C [33]: 11.7% | viability, T/C [34]: 8.76% | viability, T/C [35]: 5.6% | viability, T/C [36]: 3.48%

CC1(C)CCC(Nc2ncc(C(F)(F)F)c(-c3c[nH]c4c(P(C)(C)=O)c(C#N)ccc34)n2)CN1 (stereo unspecified) + COc1c(OCCCN2CCOCC2)ccc2c3n(c(=NC(=O)c4cnc(N)nc4)nc12)CCN3
IC50 (second compound 0.00316 µM): > 10000 nM | IC50 (second compound 0.01 µM): > 10000 nM | IC50 (second compound 0.0316 µM): > 10000 nM | IC50 (second compound 0.1 µM): 4290 nM | IC50 (second compound 0.316 µM): < 31.6 nM | IC50 (second compound 1 µM): < 31.6 nM | viability, T/C [1]: 92.5% | viability, T/C [2]: 94.2% | viability, T/C [3]: 91.6% | viability, T/C [4]: 81.2% | viability, T/C [5]: 76.5% | viability, T/C [6]: 69.3% | viability, T/C [7]: 97.3% | viability, T/C [8]: 89.5% | viability, T/C [9]: 81.5% | viability, T/C [10]: 83.5% | viability, T/C [11]: 77.3% | viability, T/C [12]: 61.5% | viability, T/C [13]: 81.6% | viability, T/C [14]: 78% | viability, T/C [15]: 77.6% | viability, T/C [16]: 67.1% | viability, T/C [17]: 70.6% | viability, T/C [18]: 55.2% | viability, T/C [19]: 64.5% | viability, T/C [20]: 66.1% | viability, T/C [21]: 60% | viability, T/C [22]: 58.2% | viability, T/C [23]: 55.5% | viability, T/C [24]: 39.8% | viability, T/C [25]: 47.3% | viability, T/C [26]: 44.8% | viability, T/C [27]: 41.2% | viability, T/C [28]: 41.5% | viability, T/C [29]: 40.6% | viability, T/C [30]: 33.5% | viability, T/C [31]: 33.8% | viability, T/C [32]: 30.1% | viability, T/C [33]: 30.2% | viability, T/C [34]: 28.3% | viability, T/C [35]: 30.5% | viability, T/C [36]: 20.9%

Cn1cnc2c(F)c(Nc3ccc(Br)cc3Cl)c(C(=O)NOCCO)cc21 + Cc1nc(NC(=O)N2CCCC2C(N)=O)sc1-c1ccnc(C(C)(C)C(F)(F)F)c1
IC50 (second compound 0.0316 µM): 75.8 nM | IC50 (second compound 0.1 µM): 80.6 nM | IC50 (second compound 0.316 µM): 61.6 nM | IC50 (second compound 1 µM): 42.1 nM | IC50 (second compound 3.16 µM): 19.6 nM | IC50 (second compound 10 µM): < 9.49 nM | viability, T/C (second compound 0.0316 µM, first compound 0.00949 µM): 86% | viability, T/C (second compound 0.0316 µM, first compound 0.03 µM): 63.5% | viability, T/C (second compound 0.0316 µM, first compound 0.0949 µM): 47.3% | viability, T/C (second compound 0.0316 µM, first compound 0.3 µM): 32.2% | viability, T/C (second compound 0.0316 µM, first compound 0.949 µM): 18.7% | viability, T/C (second compound 0.0316 µM, first compound 3 µM): 12% | viability, T/C (second compound 0.1 µM, first compound 0.00949 µM): 85.7% | viability, T/C (second compound 0.1 µM, first compound 0.03 µM): 70.2% | viability, T/C (second compound 0.1 µM, first compound 0.0949 µM): 44.1% | viability, T/C (second compound 0.1 µM, first compound 0.3 µM): 30.1% | viability, T/C (second compound 0.1 µM, first compound 0.949 µM): 21% | viability, T/C (second compound 0.1 µM, first compound 3 µM): 10.4% | viability, T/C (second compound 0.316 µM, first compound 0.00949 µM): 74.5% | viability, T/C (second compound 0.316 µM, first compound 0.03 µM): 61.5% | viability, T/C (second compound 0.316 µM, first compound 0.0949 µM): 43.3% | viability, T/C (second compound 0.316 µM, first compound 0.3 µM): 25.9% | viability, T/C (second compound 0.316 µM, first compound 0.949 µM): 16.6% | viability, T/C (second compound 0.316 µM, first compound 3 µM): 8.73% | viability, T/C (second compound 1 µM, first compound 0.00949 µM): 66.4% | viability, T/C (second compound 1 µM, first compound 0.03 µM): 60.5% | viability, T/C (second compound 1 µM, first compound 0.0949 µM): 29% | viability, T/C (second compound 1 µM, first compound 0.3 µM): 20.8% | viability, T/C (second compound 1 µM, first compound 0.949 µM): 13.8% | viability, T/C (second compound 1 µM, first compound 3 µM): 5.73% | viability, T/C (second compound 3.16 µM, first compound 0.00949 µM): 64% | viability, T/C (second compound 3.16 µM, first compound 0.03 µM): 41.6% | viability, T/C (second compound 3.16 µM, first compound 0.0949 µM): 26.7% | viability, T/C (second compound 3.16 µM, first compound 0.3 µM): 15.1% | viability, T/C (second compound 3.16 µM, first compound 0.949 µM): 9.74% | viability, T/C (second compound 3.16 µM, first compound 3 µM): 5.86% | viability, T/C (second compound 10 µM, first compound 0.00949 µM): 49.8% | viability, T/C (second compound 10 µM, first compound 0.03 µM): 33.1% | viability, T/C (second compound 10 µM, first compound 0.0949 µM): 25.5% | viability, T/C (second compound 10 µM, first compound 0.3 µM): 12.2% | viability, T/C (second compound 10 µM, first compound 0.949 µM): 9.35% | viability, T/C (second compound 10 µM, first compound 3 µM): 3.2%
